Data published in ChEMBL document CHEMBL1201862, “PubChem BioAssay data set” (2004).
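48-hour exposure; five concentrations; linearly interpolated endpoints. Abbreviation: GI50, concentration required for 50% inhibition of growth.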 The source made the active and inactive calls. Cut-off read from the data, not from the text of the source: active = GI50 up to about 1.1 µM and inactive = higher.

Legend:
Experiment in all cases: NCI tumour cell line growth inhibition, 48 h
[1] = system: SK-MEL-2
[2] = system: SF-268
[3] = system: RPMI-8226
[4] = system: UO-31
[5] = system: HOP-92
[6] = system: HCT-116
[7] = system: RXF 393
[8] = system: MOLT-4
[9] = system: Malme-3M
[10] = system: SK-MEL-28
[11] = system: EKVX
[12] = system: SK-OV-3
[13] = system: HT-29
[14] = system: CCRF-CEM
[15] = system: SF-295
[16] = system: SF-539
[17] = system: OVCAR-5
[18] = system: NCI-H522
[19] = system: UACC-257
[20] = system: TK-10

CCCNC1=C(C)C(=O)C2=C(C1=O)[C@H](COC(N)=O)[C@]1(OC)[C@@H]3N[C@@H]3CN21 was tested, and the GI50 [1] was 9.51 µM (inactive), the GI50 [2] was 4.65 µM (inactive) and the GI50 [3] was 7.18 µM (inactive). For the same molecule, the GI50 [4] was 20.3 µM (inactive), the GI50 [5] was 8.57 µM (inactive) and the GI50 [6] was 3.69 µM (inactive). For the same molecule, the GI50 [7] was 12 µM (inactive), the GI50 [8] was 1.05 µM (active) and the GI50 [9] was 6.07 µM (inactive). For the same molecule, the GI50 [10] was 19.8 µM (inactive), the GI50 [11] was 4.3 µM (inactive) and the GI50 [12] was 16.6 µM (inactive). For the same molecule, the GI50 [13] was 9.31 µM (inactive), the GI50 [14] was 3.16 µM (inactive) and the GI50 [15] was 2.39 µM (inactive). For the same molecule, the GI50 [16] was 4.39 µM (inactive), the GI50 [17] was 13.7 µM (inactive) and the GI50 [18] was 2.88 µM (inactive). The GI50 [19] was 5.55 µM (inactive).

For CC(=O)OCC1=C(C(=O)O)C(c2ccc3c(c2)OCO3)c2cc3c(cc2O1)OCO3 (centres undefined), the GI50 [3] was > 100 µM (inactive), the GI50 [4] was > 100 µM (inactive) and the GI50 [20] was > 100 µM (inactive). The GI50 [5] was 70.1 µM (inactive), the GI50 [6] was > 100 µM (inactive) and the GI50 [7] was > 100 µM (inactive). The GI50 [8] was > 100 µM (inactive), the GI50 [9] was > 100 µM (inactive) and the GI50 [10] was > 100 µM (inactive). The GI50 [11] was > 100 µM (inactive), the GI50 [12] was > 100 µM (inactive) and the GI50 [13] was > 100 µM (inactive). The GI50 [14] was > 100 µM (inactive), the GI50 [15] was > 100 µM (inactive) and the GI50 [16] was > 100 µM (inactive). The GI50 [19] was > 100 µM (inactive).

Cc1ccc(C(C)(C)C[P+](C)(c2ccccc2)c2ccccc2)cc1 was tested, and the GI50 [1] was 4.21 µM (inactive), the GI50 [2] was 16.9 µM (inactive) and the GI50 [3] was 1.41 µM (inactive). The GI50 [4] was 20.8 µM (inactive), the GI50 [5] was 1.97 µM (inactive) and the GI50 [6] was 6.56 µM (inactive). The GI50 [7] was 27.5 µM (inactive), the GI50 [8] was 11 µM (inactive) and the GI50 [9] was 4.18 µM (inactive). For the same molecule, the GI50 [10] was 8.51 µM (inactive), the GI50 [11] was 38.5 µM (inactive) and the GI50 [12] was 22.1 µM (inactive). The GI50 [13] was 4.46 µM (inactive), the GI50 [14] was 9.08 µM (inactive) and the GI50 [15] was 26.7 µM (inactive). The GI50 [16] was 28 µM (inactive), the GI50 [17] was 18.1 µM (inactive) and the GI50 [18] was 3.4 µM (inactive). For the same molecule, the GI50 [19] was 3.56 µM (inactive).

In the case of COc1nc2ccc(COc3ccc(C(=O)NC(CCC(=O)O)C(=O)O)cc3)cc2nc1OC (centres undefined), the GI50 [1] is reported as > 10 µM (inactive), the GI50 [2] is reported as > 10 µM (inactive) and the GI50 [3] is reported as > 10 µM (inactive). For the same molecule, the GI50 [4] was > 10 µM (inactive), the GI50 [20] was > 10 µM (inactive) and the GI50 [5] was > 10 µM (inactive). The GI50 [7] was > 10 µM (inactive), the GI50 [8] was > 10 µM (inactive) and the GI50 [10] was > 10 µM (inactive). For the same molecule, the GI50 [11] was > 10 µM (inactive), the GI50 [12] was > 10 µM (inactive) and the GI50 [13] was > 10 µM (inactive). The GI50 [14] was > 10 µM (inactive), the GI50 [15] was > 10 µM (inactive) and the GI50 [16] was > 10 µM (inactive). For the same molecule, the GI50 [17] was > 10 µM (inactive), the GI50 [18] was > 10 µM (inactive) and the GI50 [19] was > 10 µM (inactive).

For O=c1c(C(c2ccc(Cl)cc2)c2c(O)c3ccccc3n(-c3ccccc3)c2=O)c(O)c2ccccc2n1-c1ccccc1, the GI50 [1] was 19.5 µM (inactive), the GI50 [2] was 16.9 µM (inactive) and the GI50 [3] was 14.6 µM (inactive). The GI50 [4] was 22 µM (inactive), the GI50 [20] was 67.8 µM (inactive) and the GI50 [5] was 16.7 µM (inactive). The GI50 [6] was 24.8 µM (inactive), the GI50 [7] was 36.6 µM (inactive) and the GI50 [8] was 4.45 µM (inactive). The GI50 [9] was 21.9 µM (inactive), the GI50 [10] was > 100 µM (inactive) and the GI50 [11] was 17.2 µM (inactive). The GI50 [12] was 61.8 µM (inactive), the GI50 [14] was 18.7 µM (inactive) and the GI50 [15] was 14.4 µM (inactive). For the same molecule, the GI50 [16] was 19.1 µM (inactive), the GI50 [17] was > 100 µM (inactive) and the GI50 [18] was 22.6 µM (inactive).

For Cc1ccc(C2C(C(=O)C(C)(C)C)N2S(=O)(=O)c2ccc(C)cc2)cc1 (centres undefined), the GI50 [1] was 46.6 µM (inactive), the GI50 [2] was 30.5 µM (inactive) and the GI50 [3] was 18.9 µM (inactive). The GI50 [4] was 18.4 µM (inactive), the GI50 [20] was 28.6 µM (inactive) and the GI50 [6] was 18.7 µM (inactive). For the same molecule, the GI50 [7] was 21 µM (inactive), the GI50 [9] was 23.2 µM (inactive) and the GI50 [10] was 28.1 µM (inactive). The GI50 [11] was 15.7 µM (inactive), the GI50 [12] was > 100 µM (inactive) and the GI50 [13] was 24.3 µM (inactive). For the same molecule, the GI50 [14] was 22.6 µM (inactive), the GI50 [15] was 41.6 µM (inactive) and the GI50 [16] was 14.9 µM (inactive). The GI50 [17] was 21.3 µM (inactive) and the GI50 [18] was 16.1 µM (inactive).

N#Cc1c(NC(=S)NC(=O)c2ccccc2)nc2c(c1-c1ccccc1)CCC2 was tested, and the GI50 [2] was > 100 µM (inactive), the GI50 [3] was > 100 µM (inactive) and the GI50 [4] was 8.67 µM (inactive). The GI50 [20] was 91 µM (inactive), the GI50 [6] was > 100 µM (inactive) and the GI50 [8] was 58.1 µM (inactive). The GI50 [9] was 78.7 µM (inactive), the GI50 [11] was 24.5 µM (inactive) and the GI50 [12] was > 100 µM (inactive). For the same molecule, the GI50 [13] was > 100 µM (inactive), the GI50 [14] was > 100 µM (inactive) and the GI50 [15] was 91.2 µM (inactive). For the same molecule, the GI50 [16] was > 100 µM (inactive), the GI50 [17] was > 100 µM (inactive) and the GI50 [19] was > 100 µM (inactive).

With Cc1cc(C)c2c(O)cc(-c3ccc(F)cc3)nc2n1 the GI50 [1] was 38.7 µM (inactive), the GI50 [2] was 42.1 µM (inactive) and the GI50 [3] was 24.8 µM (inactive). For the same molecule, the GI50 [4] was 23.9 µM (inactive), the GI50 [20] was 95.1 µM (inactive) and the GI50 [5] was 29.9 µM (inactive). For the same molecule, the GI50 [8] was 29.9 µM (inactive), the GI50 [9] was 42.9 µM (inactive) and the GI50 [10] was 37.3 µM (inactive). The GI50 [11] was 48.5 µM (inactive), the GI50 [12] was 87.9 µM (inactive) and the GI50 [13] was 39.2 µM (inactive). The GI50 [14] was 26.7 µM (inactive), the GI50 [16] was > 100 µM (inactive) and the GI50 [17] was 80.5 µM (inactive). For the same molecule, the GI50 [18] was 30.3 µM (inactive) and the GI50 [19] was 33.1 µM (inactive).
